The values below come from US8450313B2, “2,3-diaryl- or heteroaryl-substituted 1,1,1-trifluoro-2-hydroxypropyl compounds” (Hoffmann-La Roche Inc., priority 2009, dated 2013).

This assay deals with T1, full length human recombinant glucocorticoid receptor (Homo sapiens, UniProt P04150).
T1 construct: It contains some partially purified full length human recombinant glucocorticoid receptor; purchased Panvera/Invitrogen PV4302
T1 sequence (P04150 1-777): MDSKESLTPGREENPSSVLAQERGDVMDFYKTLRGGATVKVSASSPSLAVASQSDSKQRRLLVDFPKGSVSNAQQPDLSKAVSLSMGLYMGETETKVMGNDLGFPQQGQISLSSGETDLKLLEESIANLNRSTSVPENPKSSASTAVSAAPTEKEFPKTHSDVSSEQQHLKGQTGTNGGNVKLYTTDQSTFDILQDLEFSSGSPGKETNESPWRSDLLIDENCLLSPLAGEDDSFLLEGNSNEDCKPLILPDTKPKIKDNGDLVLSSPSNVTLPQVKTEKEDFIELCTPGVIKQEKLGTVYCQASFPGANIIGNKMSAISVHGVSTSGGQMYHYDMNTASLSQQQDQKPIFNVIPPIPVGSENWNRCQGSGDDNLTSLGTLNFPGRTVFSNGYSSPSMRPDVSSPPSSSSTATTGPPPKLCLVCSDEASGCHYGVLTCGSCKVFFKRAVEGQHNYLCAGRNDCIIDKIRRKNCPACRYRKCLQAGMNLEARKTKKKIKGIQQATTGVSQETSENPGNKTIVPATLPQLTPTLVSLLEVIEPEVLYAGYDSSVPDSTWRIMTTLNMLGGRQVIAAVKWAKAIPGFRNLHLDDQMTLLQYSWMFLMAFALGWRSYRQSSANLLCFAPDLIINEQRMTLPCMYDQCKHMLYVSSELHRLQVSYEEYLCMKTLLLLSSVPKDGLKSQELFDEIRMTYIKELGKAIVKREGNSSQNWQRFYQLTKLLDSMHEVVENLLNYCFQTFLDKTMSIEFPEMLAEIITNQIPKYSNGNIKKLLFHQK
Kind of assay: Glucocorticoid Receptor Binding Assay (Glucocorticoid Receptor Competitor Assay far red kit, fluorescence polarization). The following applies: competition with fluorescent GR ligand Fluormone GS Far Red, 3 hours at 22° C., pH 7.4; Ki calculated from IC50 by Cheng-Prusoff. The gist of the method:
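Compounds in serial dilution (from intermediate 4.2% DMSO stock) displace Fluormone GS Far Red from full-length human recombinant GR with stabilizing peptide, pH 7.4, incubated 3 hours at 22° C dark. Polarized fluorescence (610–660 nm) gives IC50 via sigmoidal fit, converted to Ki by Cheng-Prusoff.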

By Ki is commonly meant the equilibrium dissociation constant of an inhibitor or competing ligand from its target. In the case of `C[C@H](c1ccc(Oc2ncc(C(=O)O)cc2Cl)cc1Cl)[C@@](O)(c1ccc2oc(=O)n(C)c2c1)C(F)(F)F` (stereo in doubt) [Example 180, 5-Chloro-6-{3-chloro-4-[3,3,3-trifluoro-2-hydroxy-1-methyl-2-(3-methyl-2-oxo-2,3-dihydro-benzooxazol-5-yl)-propyl]-phenoxy}-nicotinic acid], the inhibition constant (Ki) was 1 nM. Turning to `C[C@H](c1ccc(-c2ccc(F)c(C(=O)O)c2)cc1Cl)[C@@](O)(c1cccc(C#N)c1)C(F)(F)F` (stereo in doubt) [Example 154, 3′-Chloro-4′-[2-(3-cyano-phenyl)-3,3,3-trifluoro-2-hydroxy-1-methyl-propyl]-4-fluoro-biphenyl-3-carboxylic acid], the inhibition constant (Ki) is 33.7 nM.

With `COC(=O)c1cnc(Oc2ccc([C@H](C)[C@](O)(c3cc(C)c(C#N)c(C)c3)C(F)(F)F)c(Cl)c2)c(Cl)c1` (stereo in doubt) [Example 149, 5-Chloro-6-{3-chloro-4-[2-(4-cyano-3,5-dimethyl-phenyl)-3,3,3-trifluoro-2-hydroxy-1-methyl-propyl]-phenoxy}-nicotinic acid methyl ester], the Ki is 1.7 nM. For the compound `C[C@H](c1ccc(-c2ccc(Cl)c(C(=O)O)c2)cc1Cl)[C@@](O)(c1ccc2c(c1)n(C)c(=O)n2C)C(F)(F)F` (stereo in doubt) [Example 79, 4,3′-Dichloro-4′-[2-(1,3-dimethyl-2-oxo-2,3-dihydro-1H-benzoimidazol-5-yl)-3,3,3-trifluoro-2-hydroxy-1-methyl-propyl]-biphenyl-3-carboxylic acid], the inhibitory constant (Ki) was 1 nM. As for `COC(=O)c1cnc(Oc2ccc([C@@H](C)[C@@](O)(c3ccc4c(c3)N(C)C(=O)CO4)C(F)(F)F)c(Cl)c2)nc1` (racemic) [Example 226, 2-{3-Chloro-4-[3,3,3-trifluoro-2-hydroxy-1-methyl-2-(4-methyl-3-oxo-3,4-dihydro-2H-benzo[1,4]oxazin-6-yl)-propyl]-phenoxy}-pyrimidine-5-carboxylic acid methyl ester], the Ki was 5.9 nM. With `C[C@H](c1ccc(-c2ccc(F)c(C(=O)O)c2)cc1Cl)[C@@](O)(c1ccc2c(c1)oc(=O)n2C)C(F)(F)F` (relative stereo) [Example 178, 3′-Chloro-4-fluoro-4′-[3,3,3-trifluoro-2-hydroxy-1-methyl-2-(3-methyl-2-oxo-2,3-dihydro-benzooxazol-6-yl)-propyl]-biphenyl-3-carboxylic acid] the figure was 114 nM; with `C[C@H](c1ccc(-c2ccc(C(=O)O)c(F)c2)cc1Cl)[C@@](O)(c1ccc2c(c1)OCC(=O)N2C)C(F)(F)F` (stereo in doubt) [Example 164, 3′-Chloro-3-fluoro-4′-[3,3,3-trifluoro-2-hydroxy-1-methyl-2-(4-methyl-3-oxo-3,4-dihydro-2H-benzo[1,4]oxazin-7-yl)-propyl]-biphenyl-4-carboxylic acid], 7.5 nM; with `C[C@H](c1ccc(Oc2ccc(C(=O)O)c(Cl)c2)cc1Cl)[C@@](O)(c1ccc2oc(=O)n(C)c2c1)C(F)(F)F` (relative stereo) [Example 173, 2-Chloro-4-{3-chloro-4-[3,3,3-trifluoro-2-hydroxy-1-methyl-2-(3-methyl-2-oxo-2,3-dihydro-benzooxazol-5-yl)-propyl]-phenoxy}-benzoic acid], 1.1 nM.

For the compound `C[C@H](c1ccc(Oc2ncc(C(=O)O)cc2Cl)cc1Cl)[C@@](O)(c1ccc2c(c1)n(C)c(=O)n2C)C(F)(F)F` (stereo in doubt) [Example 107, 5-Chloro-6-{3-chloro-4-[2-(1,3-dimethyl-2-oxo-2,3-dihydro-1H-benzoimidazol-5-yl)-3,3,3-trifluoro-2-hydroxy-1-methyl-propyl]-phenoxy}-nicotinic acid], the Ki is 0.4 nM. Under `COC(=O)c1cnc(Oc2ccc([C@H](C)[C@](O)(c3ccc4c(c3)N(C)C(=O)CO4)C(F)(F)F)c(Cl)c2)c(Cl)c1` (single isomer, unassigned) [Example 222] stands 1.6 nM. Under `C[C@H](c1ccc(Oc2ccc(C(=O)O)c(C(F)(F)F)c2)cc1Cl)[C@@](O)(c1ccc2c(c1)N(C)C(=O)CO2)C(F)(F)F` (racemic) [Example 220, 4-{3-Chloro-4-[3,3,3-trifluoro-2-hydroxy-1-methyl-2-(4-methyl-3-oxo-3,4-dihydro-2H-benzo[1,4]oxazin-6-yl)-propyl]-phenoxy}-2-trifluoromethyl-benzoic acid] stands 1.1 nM; under `COc1cc(-c2ccc([C@@H](C)[C@@](O)(c3ccc4oc(=O)n(C)c4c3)C(F)(F)F)c(Cl)c2)ccc1C(=O)O` (stereo in doubt) [Example 132, 3′-Chloro-3-methoxy-4′-[3,3,3-trifluoro-2-hydroxy-1-methyl-2-(3-methyl-2-oxo-2,3-dihydro-benzooxazol-5-yl)-propyl]-biphenyl-4-carboxylic acid], 3 nM. In the case of `C[C@H](c1ccc(Br)cc1Cl)[C@@](O)(c1ccc2c(c1)oc(=O)n2C)C(F)(F)F` (relative stereo) [Example 133, 6-[2-(4-Bromo-2-chloro-phenyl)-1-hydroxy-1-trifluoromethyl-propyl]-3-methyl-3H-benzooxazol-2-one], the Ki was 1.6 nM. Turning to `C[C@H](c1ccc(-c2ccc(F)c(C(=O)O)c2)cc1Cl)[C@@](O)(c1ccc2oc(=O)n(C)c2c1)C(F)(F)F` (relative stereo) [Example 122, 3′-Chloro-4-fluoro-4′-[3,3,3-trifluoro-2-hydroxy-1-methyl-2-(3-methyl-2-oxo-2,3-dihydro-benzooxazol-5-yl)-propyl]-biphenyl-3-carboxylic acid], the Ki was 0.5 nM. In the case of `C[C@@H](c1ccc(Oc2ccc(C(=O)O)c(Cl)c2)cc1Cl)[C@](O)(c1cc2c(cc1F)OCC(=O)N2C)C(F)(F)F` (stereo in doubt) [Example 139, 2-Chloro-4-{3-chloro-4-[3,3,3-trifluoro-2-(7-fluoro-4-methyl-3-oxo-3,4-dihydro-2H-benzo[1,4]oxazin-6-yl)-2-hydroxy-1-methyl-propyl]-phenoxy}-benzoic acid], the Ki was 2.7 nM. Under `C[C@@H](c1ccc(Oc2ccc(C(=O)O)cn2)cc1Cl)[C@](O)(c1ccc2c(c1)n(C)c(=O)n2C)C(F)(F)F` (stereo in doubt) [Example 101, 6-{3-Chloro-4-[2-(1,3-dimethyl-2-oxo-2,3-dihydro-1H-benzoimidazol-5-yl)-3,3,3-trifluoro-2-hydroxy-1-methyl-propyl]-phenoxy}-nicotinic acid] stands 1.1 nM. With `C[C@H](c1ccc(-c2cccc(C(=O)O)n2)cc1Cl)[C@@](O)(c1ccc2oc(=O)n(C)c2c1)C(F)(F)F` (relative stereo) [Example 190, 6-{3-Chloro-4-[3,3,3-trifluoro-2-hydroxy-1-methyl-2-(3-methyl-2-oxo-2,3-dihydro-benzooxazol-5-yl)-propyl]-phenyl}-pyridine-2-carboxylic acid] the figure was 3 nM; with `C[C@H](c1ccc(Oc2ncc(C(=O)O)cc2Cl)cc1Cl)[C@@](O)(c1ccc2c(c1)OCC(=O)N2C)C(F)(F)F` (stereo in doubt) [Example 165, 5-Chloro-6-{3-chloro-4-[3,3,3-trifluoro-2-hydroxy-1-methyl-2-(4-methyl-3-oxo-3,4-dihydro-2H-benzo[1,4]oxazin-7-yl)-propyl]-phenoxy}-nicotinic acid], 0.9 nM; with `C[C@H](c1ccc(Oc2cc(Cl)ncc2C(=O)O)cc1Cl)[C@@](O)(c1ccc2c(c1)n(C)c(=O)n2C)C(F)(F)F` (stereo in doubt) [Example 108, 6-Chloro-4-{3-chloro-4-[2-(1,3-dimethyl-2-oxo-2,3-dihydro-1H-benzoimidazol-5-yl)-3,3,3-trifluoro-2-hydroxy-1-methyl-propyl]-phenoxy}-nicotinic acid], 10.4 nM.

In the case of `C[C@@H](c1ccc(-c2cccc(CC(=O)O)c2)cc1Cl)[C@](O)(c1ccc2c(c1)N(C)C(=O)CO2)C(F)(F)F` (relative stereo) [Example 41, {3′-Chloro-4′-[3,3,3-trifluoro-2-hydroxy-1-methyl-2-(4-methyl-3-oxo-3,4-dihydro-2H-benzo[1,4]oxazin-6-yl)-propyl]-biphenyl-3-yl}-acetic acid], the Ki was 1.5 nM.

As to `COC(=O)c1ccc(-c2ccc([C@H](C)[C@](O)(c3ccc4c(c3)N(C)C(=O)CO4)C(F)(F)F)c(Cl)c2)cc1F` (racemic) [Example 25, 3′-Chloro-3-fluoro-4′-[3,3,3-trifluoro-2-hydroxy-1-methyl-2-(4-methyl-3-oxo-3,4-dihydro-2H-benzo[1,4]oxazin-6-yl)-propyl]-biphenyl-4-carboxylic acid methyl ester], the Ki is 2.8 nM.
